According to article PMC8836179, “Transport Turnover Rates for Human OCT2 and MATE1 Expressed in Chinese Hamster Ovary Cells” (International Journal of Molecular Sciences, 2022):
Values joined by “and” are separate entries in the source; they are usually repeats but may differ in a detail not shown here. Identical values can stand only once.

Tests used:
hMATE1 = biological target: T1, hMATE1 (Homo sapiens, UniProt Q96FL8); test: MATE1-mediated substrate uptake kinetics and turnover rate in stably expressing CHO cells; assay type: in vitro ADME; conditions: for Kt (Ktapp, apparent Michaelis constant) / Jmax (maximum rate of mediated substrate transport): CHO cells stably expressing MATE1, 60-s uptakes, outwardly-directed H+ gradient (ammonia pulse), mean ± SD; for TOR (turnover rate): Jmax divided by cell surface MATE1 abundance (21.9 ± 18.1 fmol cm^−2), CHO cells
T1 construct: expressed in transfected cells; vector pcDNA5/FRT/V5-His TOPO
T1 sequence (Q96FL8 1-570): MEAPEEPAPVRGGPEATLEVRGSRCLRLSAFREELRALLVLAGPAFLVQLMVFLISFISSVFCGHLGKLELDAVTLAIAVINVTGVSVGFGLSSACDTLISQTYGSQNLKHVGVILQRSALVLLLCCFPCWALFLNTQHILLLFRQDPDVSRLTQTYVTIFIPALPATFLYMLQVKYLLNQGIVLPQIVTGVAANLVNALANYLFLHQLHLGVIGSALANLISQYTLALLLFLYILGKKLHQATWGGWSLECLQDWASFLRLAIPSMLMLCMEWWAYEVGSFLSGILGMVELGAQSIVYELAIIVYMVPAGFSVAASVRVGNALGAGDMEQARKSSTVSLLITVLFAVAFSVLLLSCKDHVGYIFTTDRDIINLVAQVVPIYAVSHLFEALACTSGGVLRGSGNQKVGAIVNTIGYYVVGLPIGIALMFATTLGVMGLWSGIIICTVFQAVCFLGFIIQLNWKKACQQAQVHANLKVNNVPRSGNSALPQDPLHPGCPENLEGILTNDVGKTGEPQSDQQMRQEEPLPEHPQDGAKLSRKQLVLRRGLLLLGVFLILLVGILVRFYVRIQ
Method: (§1) The calculation of TOR values involved dividing the maximal rates of substrate transport (Jmax) by the number of cell-surface-expressed transporters (Table 1).
(§2) Chinese hamster ovary (CHO) cells with a single integrated Flp-In recombination site were obtained from Invitrogen (Carlsbad, CA, USA). […] Cells were passaged every 3–4 days and maintained at 37 °C in a humidified environment with 5% CO2. Continued expression of MATE1 and OCT2 in these cell lines was maintained using hygromycin (200 µg/mL; Invitrogen, Carlsbad, CA) selection pressure; continued expression of the Flp-In recombination site in wild-type (WT; non-transporter expressing) CHO cells was maintained using Zeocin (100 µg/mL; Invitrogen) selection pressure. When seeded into 96-well plates (Greiner; VWR Intl., Arlington Heights, IL, USA) for transport assays, cells were grown to confluence in antibiotic-free medium.
(§3) Cells were seeded in 96 well plates with 200 µL of cell media containing 550,000 cells/mL or 275,000 cells/mL, and experiments were performed 24 or 48 h later, respectively. To begin an experiment, media was aspirated and the wells were washed for three cycles over 12 s with 300 µL of room temperature (~23 °C) Waymouth Buffer (WB; 135 mM NaCl, 13 mM HEPES, 2.5 mM CaCl2·2H2O, 1.2 mM MgCl2, 0.8 mM MgSO4·7H2O, 5 mM KCl, and 28 mM D-glucose; pH 7.4) using an automatic microplate washer (Model 405, BioTek, Winooski, VT, USA). For studies of OCT2-mediated transport, uptake was initiated by addition of 60 µL of WB containing radiolabeled substrate and other compounds, as needed. For studies of MATE1-mediated transport, the cells (MATE1-expressing and control cells) were exposed to an ammonia pulse method that we previously used to elevate cytoplasmic [H^+] to a level (~6.0 pH; [61]) that effectively saturates the cytoplasmic face of the exchanger with H^+ [51]. Briefly, cells were preincubated for 20 min (room temp) in buffer containing 20 mM NH4Cl (the first step in establishing an outwardly-directed H^+ gradient; [60]). Plates were then placed in the automatic fluid aspirator/dispenser and rinsed/aspirated three times with room temperature WB (pH 7.4), and transport was initiated by aspirating this medium and replacing it with 60 µL of an NH4Cl-free medium containing labeled substrate, thereby, establishing a trans H^+ gradient, qualitatively similar to the conditions that support MATE1-mediated transport in renal proximal tubules. For all experiments, transport buffers were added using a VIAFLO 96-well multichannel pipet (Integra Biosciences, Hudson, NH, USA). At specified time intervals, transport was terminated by rinsing with three cycles of cold WB (300 µL). Following rinsing and final aspiration, 200 µL of scintillation cocktail (Microscint 20, Perkin-Elmer, Waltham, MA, USA) was added to each well. The plates were sealed (Topseal-A, Perkin Elmer), and after sitting for at least two hours, accumulated radioactivity was determined in a six-channel multiwell scintillation counter (Wallac Trilux 1450 Microbeta, Perkin-Elmer).
(§4) The method described here is a minor modification of that described by Pelis et al..

hOCT2 = biological target: T2, hOCT2 (Homo sapiens, UniProt O15244); test: OCT2-mediated substrate uptake kinetics and turnover rate in stably expressing CHO cells; assay type: in vitro ADME; conditions: for Jmax (maximum rate of mediated substrate transport) / Kt (Ktapp, apparent Michaelis constant): CHO cells stably expressing OCT2, 60-s uptakes, pH 7.4, mean ± SD; for TOR (turnover rate): Jmax divided by cell surface OCT2 abundance (154 ± 70.7 fmol cm^−2), CHO cells
T2 construct: expressed in transfected cells; vector pcDNA5/FRT/V5-His TOPO
T2 sequence (O15244 1-555): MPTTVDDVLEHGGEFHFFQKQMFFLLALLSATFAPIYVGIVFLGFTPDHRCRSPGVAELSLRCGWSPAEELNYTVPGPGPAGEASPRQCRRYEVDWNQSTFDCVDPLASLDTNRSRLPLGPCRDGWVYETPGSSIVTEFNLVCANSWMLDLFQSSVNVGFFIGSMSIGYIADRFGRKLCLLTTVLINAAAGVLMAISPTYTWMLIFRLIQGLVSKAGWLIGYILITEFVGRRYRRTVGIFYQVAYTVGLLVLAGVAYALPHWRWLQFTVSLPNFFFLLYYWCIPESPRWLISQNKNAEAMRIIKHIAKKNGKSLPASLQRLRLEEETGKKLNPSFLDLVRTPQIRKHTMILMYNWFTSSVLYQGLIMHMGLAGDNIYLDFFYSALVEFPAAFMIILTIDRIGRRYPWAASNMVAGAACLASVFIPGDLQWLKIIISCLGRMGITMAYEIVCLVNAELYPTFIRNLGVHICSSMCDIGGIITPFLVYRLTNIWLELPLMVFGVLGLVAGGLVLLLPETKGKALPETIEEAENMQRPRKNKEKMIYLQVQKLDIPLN
Method: as §1, §2, §3, §4

Row | SMILES | Kt (Ktapp, apparent Michaelis constant) (hMATE1) | Kt (Ktapp, apparent Michaelis constant) (hMATE1; listed as atenolol) | Jmax (maximum rate of mediated substrate transport) (hMATE1) | TOR (turnover rate) (hMATE1) | Jmax (maximum rate of mediated substrate transport) (hOCT2) | Kt (Ktapp, apparent Michaelis constant) (hOCT2) | TOR (turnover rate) (hOCT2) | Jmax (maximum rate of mediated substrate transport) (hMATE1; listed as metformin) | TOR (turnover rate) (hMATE1; listed as metformin) | Jmax (maximum rate of mediated substrate transport) (hOCT2; listed as metformin) | Kt (Ktapp, apparent Michaelis constant) (hOCT2; listed as metformin)
1 | CC(C)NCC(O)COc1ccc(CC(N)=O)cc1 (stereo not drawn) [Atenolol, atenolol] | 354 ± 96 µM and 354 ± 95.9 µM | 354 ± 96 µM | – | – | – | – | – | – | – | – | –
2 | C[n+]1ccc(-c2ccccc2)cc1 [MPP, 1-Methyl-4-phenylpyridinium] | 66 ± 6.8 µM | – | 241 ± 85 pmol cm^−2 min^−1 and 241 ± 84.9 (n = 4) pmol cm^−2 min^−1 | 297 ± 201 s⁻¹ | 59 ± 6.6 pmol cm^−2 min^−1 and 58.5 ± 6.6 pmol cm^−2 min^−1 and 58 pmol cm^−2 min^−1 and 58.5 ± 6.6 (n = 3) pmol cm^−2 min^−1 | 17.5 ± 2.1 µM | 7.1 ± 2.4 s⁻¹ | – | – | – | –
3 | CN(C)C(=N)N=C(N)N [Metformin, metformin] | 664 ± 302 µM | – | 1802 ± 1147 pmol cm^−2 min^−1 and 1802 ± 1147 (n = 4) pmol cm^−2 min^−1 | 1894 ± 1282 s⁻¹ | 509 ± 39 pmol cm^−2 min^−1 and 509 ± 39.0 (n = 2) pmol cm^−2 min^−1 | 427 ± 48 µM and 427 ± 48.0 µM | 70 s⁻¹ | 1802 ± 1147 pmol cm^−2 min^−1 | ~ 1900 s^−1 | 509 ± 39 pmol cm^−2 min^−1 and 509 pmol cm^−2 min^−1 | 427 ± 48 µM
